# Patent publication US8647867B2, “Cell cultivation method and cell culture” (National University Corportion Okayama University, priority 2005, dated 2014)
# Columns and labels:
# Type in all cases: cell-based
# porcine pancreatic islet = assay: Morphological study of cultured porcine pancreatic islet by electron microscope (morphological criteria, points); details: porcine pancreatic islets, day 5 of culture
# Description: As the inspection method of cultured pancreatic islets, a method is mentioned in which the following 4 items as morphological criteria are evaluated at 5 levels (1 to 5 points) (see, literature: Matsumoto S, Qualley S A, Goel S, et al., Effect of the two-layer (University of Wisconsin solution-Perfluorochemical plus 02) method of pancreas preservation on human islet isolation as assessed by Edmonton isolation protocol. Transplantation 2002; 74: 1414).
# Evaluation is performed at 5 levels of “flat: 1 point”, “approximately flat: 2 points”, “irregularly spherical: 3 points”, “approximately spherical: 4 points”, and “spherical: 5 points”.
# Evaluation is performed at 5 levels of “irregular: 1 point”, “approximately irregular: 2 points”, “somewhat well-rounded: 3 points”, “approximately well-rounded: 4 points”, and “well-rounded: 5 points”. Among these, “well-rounded: 5 points” is most preferable.
# Evaluation is performed at 5 levels of “fragmented: 1 point”, “approximately fragmented: 2 points”, “somewhat solid/compact: 3 points”, “approximately solid/compact: 4 points”, and “solid/compact: 5 points”. Among these, “solid/compact: 5 points” is most preferable.
# Evaluation is performed at 5 levels of “smaller than 100 μm for individual cultured pancreatic islets (all <100 μm): 1 point”, “100 to 150 μm for individual cultured pancreatic islets: 2 points”, “[…] for individual cultured pancreatic islets: 3 points”, “150 to 200 μm for individual cultured pancreatic islets: 4 points”, and “larger than 200 μm for at least 10% of individual cultured pancreatic islets (>10%>200 μm): 5 points”. Among these, “larger than 200 μm for at least 10% of individual cultured pancreatic islets: 5 points” is most preferable.
# In the above-described criteria, the shape “flat” means that when a pancreatic islet is considered to be elliptic sphere, the ratio of major axis/minor axis is at least 10, the shape “approximately flat” means that the above-described ratio of major axis/minor axis is at least 5 and less than 10, the shape “irregularly spherical” means that the above-described ratio of major axis/minor axis is at least 2 and less than 5, the shape “approximately spherical” means that the above-described ratio of major axis/minor axis is at least 1.2 and less than 2, and the shape “spherical” means that the above-described ratio of major axis/minor axis is less than 1.2. […]
# porcine hepatocyte [1] = assay: Metabolic ability of ammonia in cultured porcine hepatocyte; parameters: ammonia metabolic rate: unit not given beside the values; details: for ammonia metabolic rate: ammonium sulfate 0.56 mM, after 24 hours
# porcine hepatocyte [2] = assay: Morphological study of cultured porcine hepatocyte by phase-contrast and electron microscope
# Description: Recently, it has been known that when three-dimensional culture of cells is performed on scaffold, cell functions are improved and maintained. […]
# porcine hepatocyte [3] = assay: Viability of porcine hepatocyte (live/dead test); details: culture without insert, days 1, 7 and 14 of culture
# From the text: Therefore, it was clarified that it is more suitable for culture of porcine hepatocyte to use PuraMatrix of SEQ ID NO:1 Since the appended Photographs are converted into white and black two tones, dyed colors are not expressed.
# human hepatocyte = assay: Morphological study of cultured human hepatocyte by phase-contrast and electron microscope; details: culture without insert, phase-contrast microscope days 1 and 5, electron microscope day 5
# Description: Donor liver judged to be unsuitable for transplantation in the United States was obtained from National Disease Research Interchange via HUMAN & ANIMAL BRIDGING […] ORGANIZATION laboratory (Ichikawa city, Chiba prefecture, responsible person) in the form of liver block (130 g) which was then separated into hepatocyte in the same manner as for the above-described isolation of porcine hepatocyte in Example 1.
# Recently, it has been known that when three-dimensional culture of cells is performed on scaffold, cell functions are improved and maintained. […] In contrast, human hepatocytes cultured with collagen type I (monolayer) (group B) adhered in flat form to the surface of the culture flask (see, Photograph 1 in FIG. 7(a)). […] As a result, it was clarified that it is more suitable for culture of human hepatocyte to use PuraMatrix of SEQ ID NO:1.
# [4] = porcine hepatocyte, culture without insert, days 1, 7 and 14
compound,measurement,setting,value
"CC(=O)N[C@@H](CCCNC(=N)N)C(=O)N[C@@H](C)C(=O)N[C@@H](CC(=O)O)C(=O)N[C@@H](C)C(=O)N[C@@H](CCCNC(=N)N)C(=O)N[C@@H](C)C(=O)N[C@@H](CC(=O)O)C(=O)N[C@@H](C)C(=O)N[C@@H](CCCNC(=N)N)C(=O)N[C@@H](C)C(=O)N[C@@H](CC(=O)O)C(=O)N[C@@H](C)C(=O)N[C@@H](CCCNC(=N)N)C(=O)N[C@@H](C)C(=O)N[C@@H](CC(=O)O)C(=O)N[C@@H](C)C(N)=O [Group A, Ac-(RADA)4-CONH2]",pancreatic islet morphology: 1. shape,porcine pancreatic islet,5 (spherical: 5 points)
same,pancreatic islet morphology: 2. border shape,porcine pancreatic islet,5 (well-rounded: 5 points)
same,pancreatic islet morphology: 3. integrity,porcine pancreatic islet,5 (solid/compact: 5 points)
same,pancreatic islet morphology: sum of the evaluation values,porcine pancreatic islet,18 points
same,ammonia metabolic rate,"porcine hepatocyte [1]; Table 1(a), culture without insert, day 1 of culture",58.6
same,ammonia metabolic rate,"porcine hepatocyte [1]; Table 1(a), culture without insert, day 7 of culture",43.8
same,ammonia metabolic rate,"porcine hepatocyte [1]; Table 1(a), culture without insert, day 14 of culture",26.4
same,ammonia metabolic rate,"porcine hepatocyte [1]; Table 1(c), culture with insert, day 1 of culture",61.6
same,ammonia metabolic rate,"porcine hepatocyte [1]; Table 1(c), culture with insert, day 7 of culture",49.6
same,ammonia metabolic rate,"porcine hepatocyte [1]; Table 1(c), culture with insert, day 14 of culture",38.2
same,ammonia metabolic rate,"porcine hepatocyte [1]; Table 1(c), culture with insert, day 21 of culture",36.1
same,ammonia metabolic rate,"porcine hepatocyte [1]; Table 1b, culture without insert, day 1 of culture",59.8
same,ammonia metabolic rate,"porcine hepatocyte [1]; Table 1b, culture without insert, day 7 of culture",44.3
same,ammonia metabolic rate,"porcine hepatocyte [1]; Table 1b, culture without insert, day 14 of culture",33.3
same,"ammonia metabolic rate as compared with collagen type I (monolayer) (group B), Matrigel (group C) and collagen sandwich (group D)","porcine hepatocyte [1]; porcine hepatocyte, culture with insert, days 1, 7, 14 and 21",significantly better
same,ammonia metabolic rate as compared with collagen type I (monolayer) (group B),porcine hepatocyte [1]; [4],significantly better
same,ammonia metabolic rate as compared with collagen type I (monolayer) (group B) and Matrigel (group C),porcine hepatocyte [1]; [4],significantly better
same,formation of cell adhesion apparatus and bile canaliculi between hepatocytes,"porcine hepatocyte [2]; culture with insert, day 3 of culture, transmission electron microscope",a cell adhesion apparatus 5 and a bile canaliculi 6 were formed between hepatocytes
same,formation of three-dimensional spheroid by hepatocytes,"porcine hepatocyte [2]; culture without insert, phase-contrast microscope days 1, 7, 14, electron microscope day 5",formation of three-dimensional spheroid by hepatocytes was confirmed
same,"viability of porcine hepatocytes (live cells green, dead cells red)",porcine hepatocyte [3],most cells exhibited a green color
same,formation of three-dimensional spheroid by hepatocytes,human hepatocyte,formation of three-dimensional spheroid by hepatocytes was confirmed
